These results are taken from patent US5698522A, “6-position modified decapeptide LHRH antagonists” (Abbott Laboratories, priority 1995, dated 1997).

Molecules are shown by their SMILES. Where a SMILES comes first, the peptide text is derived from it. Side-chain parts run from the residue outwards. [ ]: non-standard residue; d: D form. The star is where a group is joined. X3 = O=Cn1cc(C[C@@H](NC(=O)C2=C[C@@H](O)[C@@H](O)[C@H](O)C2)C(=O)*)c2ccccc21; Shikimoyl = O=C(C1=C[C@@H](O)[C@@H](O)[C@H](O)C1)*; dPhe(4-Cl) = N[C@H](Cc1ccc(Cl)cc1)C(=O)O; d2Nal = N[C@H](Cc1ccc2ccccc2c1)C(=O)O; Lys(iPr) = CC(C)NCCCC[C@H](N)C(=O)O; NMeY = CN[C@@H](Cc1ccc(O)cc1)C(=O)O; Pyrazinecarbonyl = O=C(c1cnccn1)*; d3Pal = N[C@H](Cc1cccnc1)C(=O)O; Salicyloyl = O=C(c1ccccc1O)*; Nicotinoyl = O=C(c1cccnc1)*; dOrn = NCCC[C@@H](N)C(=O)O; GABA = NCCCC(=O)O; azaGly = NNC(=O)O; βAla = NCCC(=O)O; Sar = CNCC(=O)O

This assay deals with T1, LHRH receptor (Rattus norvegicus, UniProt P30969).
T1 construct: endogenous in cells
T1 sequence (P30969 1-327): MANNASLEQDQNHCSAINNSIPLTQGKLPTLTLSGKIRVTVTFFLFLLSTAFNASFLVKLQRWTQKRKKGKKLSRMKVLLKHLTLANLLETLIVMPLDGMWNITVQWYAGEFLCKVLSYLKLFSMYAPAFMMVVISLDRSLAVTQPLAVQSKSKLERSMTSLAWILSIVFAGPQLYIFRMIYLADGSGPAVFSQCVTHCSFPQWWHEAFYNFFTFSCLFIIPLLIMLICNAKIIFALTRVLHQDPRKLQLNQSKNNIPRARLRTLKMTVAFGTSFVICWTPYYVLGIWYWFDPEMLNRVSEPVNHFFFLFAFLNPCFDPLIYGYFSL
In words: in vitro LHRH antagonist potency (pA2) against the agonist leuprolide. In kind it is cell-based. To be noted: negative logarithm of the antagonist concentration which shifts the response curve produced by the agonist leuprolide to two-fold higher concentration. On the procedure:
Representative compounds of the present invention were evaluated in in vitro tests for receptor binding (pKI) and for LHRH antagonist potency (pA2). The tests employed the methods detailed in F. Haviv, et al., J. Med. Chem., 32: 2340-2344 (1989). The receptor binding affinities (pKI) are the negative logarithms of the equilibtirum dissociation constants (pA2) are the negative logarithms of the concentration of antagonist which shift the response curve roduced by the agonist leuprolide to two-fold higher concentration. (Leuprolide is the LHRH agonist having the structure 5-oxo-Pro^1 -His^2 -Trp^3 -Ser^4 -Tyr^5 -D-Leu^6 -Leu^7 -Arg^8 -Pro^9 -NHEt and is disclosed and claimed in U.S. Pat. No. 4,005,063.) Typically pA2 values of 9.5 or greater are indicative of good LHRH antagonist potency.
What is called Kb is the equilibrium dissociation constant of an antagonist, usually derived from a functional assay. For `CC(=O)N[C@H](Cc1ccc2ccccc2c1)C(=O)N[C@H](Cc1ccc(Cl)cc1)C(=O)N[C@H](Cc1cccnc1)C(=O)N[C@@H](CO)C(=O)N(C)[C@@H](Cc1ccc(O)cc1)C(=O)N[C@H](CCCCNC(=O)CNC(=O)c1ccccc1O)C(=O)N[C@@H](CC(C)C)C(=O)N[C@@H](CCCCNC(C)C)C(=O)N1CCC[C@H]1C(=O)N[C@H](C)C(N)=O` [Example 19b, NAc-D2Nal^1 -D4ClPhe^2 -D3Pal^3 -Ser^4 -NMeTyr^5 -DLys[N-epsilon-Gly-Salicyl]^6 -Leu^7 -Lys(N-epsilon-Isopropyl)^8 -Pro^9 -DAla^10 NH2] (Ac-[d2Nal][dPhe(4-Cl)][d3Pal]S[NMeY][dK]([Gly-Salicyloyl])L[Lys(iPr)]P[dA]-NH2), the Kb is 0.00661 nM. Then `CC(=O)N[C@H](Cc1ccc2ccccc2c1)C(=O)N[C@H](Cc1ccc(Cl)cc1)C(=O)N[C@H](Cc1cccnc1)C(=O)N[C@@H](CO)C(=O)N(C)[C@@H](Cc1ccc(O)cc1)C(=O)N[C@H](CCCCNC(=O)CCNC(=O)NNC(=O)c1cccnc1)C(=O)N[C@@H](CC(C)C)C(=O)N[C@@H](CCCCNC(C)C)C(=O)N1CCC[C@H]1C(=O)N[C@H](C)C(N)=O` [Example 25a, NAc-D2Nal^1 -D4ClPhe^2 -D3Pal^3 -Ser^4 -NMeTyr^5 -DLys[N-epsilon-(beta-Alanyl)-Azagly-Nicotinyl]^6 -Leu^7 -Lys(N-epsilon-Isopropyl)^8 -Pro^9 -DAla^10 NH2] (Ac-[d2Nal][dPhe(4-Cl)][d3Pal]S[NMeY][dK]([βAla-azaGly-Nicotinoyl])L[Lys(iPr)]P[dA]-NH2), with 0.0363 nM; and `CC(=O)N[C@H](Cc1ccc2ccccc2c1)C(=O)N[C@H](Cc1ccc(Cl)cc1)C(=O)N[C@H](Cc1cccnc1)C(=O)N[C@@H](CO)C(=O)N(C)[C@@H](Cc1ccc(O)cc1)C(=O)N[C@H](CCCCNC(=O)CNC(=O)C1=C[C@@H](O)[C@@H](O)[C@H](O)C1)C(=O)N[C@@H](CC(C)C)C(=O)N[C@@H](CCCCNC(C)C)C(=O)N1CCC[C@H]1C(=O)N[C@H](C)C(N)=O` [Example 6b, NAc-D2Nal^1 -D4ClPhe^2 -D3Pal^3 -Ser^4 -NMeTyr^5 -DLys(N-epsilon-Gly-Shikimyl)^6 -Leu^7 -Lys(N-epsilon-Isopropyl)^8 -Pro^9 -DAla^10 NH2] (Ac-[d2Nal][dPhe(4-Cl)][d3Pal]S[NMeY][dK]([Gly-Shikimoyl])L[Lys(iPr)]P[dA]-NH2), with 0.024 nM. Then `CC(=O)N[C@H](Cc1ccc2ccccc2c1)C(=O)N[C@H](Cc1ccc(Cl)cc1)C(=O)N[C@H](Cc1cccnc1)C(=O)N[C@@H](CO)C(=O)N(C)[C@@H](Cc1ccc(O)cc1)C(=O)N[C@H](CCCCNC(=O)NNC(=O)c1ccccc1O)C(=O)N[C@@H](CC(C)C)C(=O)N[C@@H](CCCCNC(C)C)C(=O)N1CCC[C@H]1C(=O)N[C@H](C)C(N)=O` [Example 5c, NAc-D2Nal^1 -D4ClPhe^2 -D3Pal^3 -Ser^4 -NMeTyr^5 -DLys(N-epsilon-Azagly-Salicyl)^6 -Leu^7 -Lys(N-epsilon-Isopropyl)^8 -Pro^9 -DAla^10 NH2] (Ac-[d2Nal][dPhe(4-Cl)][d3Pal]S[NMeY][dK]([azaGly-Salicyloyl])L[Lys(iPr)]P[dA]-NH2), with 0.0132 nM. Under `CC(=O)N[C@H](Cc1ccc2ccccc2c1)C(=O)N[C@H](Cc1ccc(Cl)cc1)C(=O)N[C@H](Cc1cccnc1)C(=O)N[C@@H](CO)C(=O)N(C)[C@@H](Cc1ccc(O)cc1)C(=O)N[C@H](CCCNC(=O)CNC(=O)C1=C[C@@H](O)[C@@H](O)[C@H](O)C1)C(=O)N[C@@H](CC(C)C)C(=O)N[C@@H](CCCNC(=N)N)C(=O)N1CCC[C@H]1C(=O)N[C@H](C)C(N)=O` [Example 49c, NAc-D2Nal^1 -D4ClPhe^2 -D3Pal^3 -Ser^4 -NMeTyr^5 -DOrn(N-epsilon-Gly-Shikimyl)^6 -Leu^7 -Arg^8 -Pro^9 -DAla^10 NH2] (Ac-[d2Nal][dPhe(4-Cl)][d3Pal]S[NMeY][dOrn]([Gly-Shikimoyl])LRP[dA]-NH2) stands 0.0427 nM; under `CC(=O)N[C@H](Cc1ccc2ccccc2c1)C(=O)N[C@H](Cc1ccc(Cl)cc1)C(=O)N[C@H](Cc1cccnc1)C(=O)N[C@@H](CO)C(=O)N(C)[C@@H](Cc1ccc(O)cc1)C(=O)N[C@H](CCCCNC(=O)[C@@H](CO)NC(=O)c1cnccn1)C(=O)N[C@@H](CC(C)C)C(=O)N[C@@H](CCCNC(=N)N)C(=O)N1CCC[C@H]1C(=O)N[C@H](C)C(N)=O` [Example 50g, NAc-D2Nal^1 -D4ClPhe^2 -D3Pal^3 -Ser^4 -NMeTyr^5 -DLys(N-epsilon-DSer-2-Pyrazinecarbonyl)^6 -Leu^7 -Arg^8 -Pro^9 -DAla^10 NH2] (Ac-[d2Nal][dPhe(4-Cl)][d3Pal]S[NMeY][dK]([dS-Pyrazinecarbonyl])LRP[dA]-NH2), 0.0126 nM; under `CC(=O)N[C@H](Cc1ccc2ccccc2c1)C(=O)N[C@H](Cc1ccc(Cl)cc1)C(=O)N[C@H](Cc1cccnc1)C(=O)N[C@@H](CO)C(=O)N(C)[C@@H](Cc1ccc(O)cc1)C(=O)N[C@H](CCCCNC(=O)[C@H](NC(=O)C1=C[C@@H](O)[C@@H](O)[C@H](O)C1)[C@H](C)O)C(=O)N[C@@H](CC(C)C)C(=O)N[C@@H](CCCNC(=N)N)C(=O)N1CCC[C@H]1C(=O)N[C@H](C)C(N)=O` [Example 38d, NAc-D2Nal^1 -D4ClPhe^2 -D3Pal^3 -Ser^4 -NMeTyr^5 -DLys(N-epsilon-DThr-Shikimyl)^6 -Leu^7 -Arg^8 -Pro^9 -DAla^10 NH2] (Ac-[d2Nal][dPhe(4-Cl)][d3Pal]S[NMeY][dK]([dT-Shikimoyl])LRP[dA]-NH2), 0.02 nM. For `CC(=O)N[C@H](Cc1ccc2ccccc2c1)C(=O)N[C@H](Cc1ccc(Cl)cc1)C(=O)N[C@H](Cc1cccnc1)C(=O)N[C@@H](CO)C(=O)N(C)[C@@H](Cc1ccc(O)cc1)C(=O)N[C@H](CCCCNC(=O)[C@@H](Cc1cn(C=O)c2ccccc12)NC(=O)C1=C[C@@H](O)[C@@H](O)[C@H](O)C1)C(=O)N[C@@H](CC(C)C)C(=O)N[C@@H](CCCNC(=N)N)C(=O)N1CCC[C@H]1C(=O)N[C@H](C)C(N)=O` [Example 65a, NAc-D2Nal^1 -D4ClPhe^2 -D3Pal^3 -Ser^4 -NMeTyr^5 -DLys(N-epsilon-DTrp(Formyl)-Shikimyl)^6 -Leu^7 -Arg^8 -Pro^9 -DAla^10 NH2] (Ac-[d2Nal][dPhe(4-Cl)][d3Pal]S[NMeY][dK](X3)LRP[dA]-NH2), the Kb is 0.0251 nM. For the compound `CC(=O)N[C@H](Cc1ccc2ccccc2c1)C(=O)N[C@H](Cc1ccc(Cl)cc1)C(=O)N[C@H](Cc1cccnc1)C(=O)N[C@@H](CO)C(=O)N(C)[C@@H](Cc1ccc(O)cc1)C(=O)N[C@H](CCCCNC(=O)[C@@H](CO)NC(=O)c1cccnc1)C(=O)N[C@@H](CC(C)C)C(=O)N[C@@H](CCCNC(=N)N)C(=O)N1CCC[C@H]1C(=O)N[C@H](C)C(N)=O` [Example 7, NAc-D2Nal^1 -D4ClPhe^2 -D3Pal^3 -Ser^4 -NMeTyr^5 -DLys(N-epsilon-DSer-Nicotinyl)^6 -Leu^7 -Arg^8 -Pro^9 -DAla^10 NH2] (Ac-[d2Nal][dPhe(4-Cl)][d3Pal]S[NMeY][dK]([dS-Nicotinoyl])LRP[dA]-NH2), the antagonist dissociation constant (Kb) was 0.00891 nM. Then `CC(=O)N[C@H](Cc1ccc2ccccc2c1)C(=O)N[C@H](Cc1ccc(Cl)cc1)C(=O)N[C@H](Cc1cccnc1)C(=O)N[C@@H](CO)C(=O)N(C)[C@@H](Cc1ccc(O)cc1)C(=O)N[C@H](CCCCNC(=O)CN(C)C(=O)C1=C[C@@H](O)[C@@H](O)[C@H](O)C1)C(=O)N[C@@H](CC(C)C)C(=O)N[C@@H](CCCNC(=N)N)C(=O)N1CCC[C@H]1C(=O)N[C@H](C)C(N)=O` [Example 48f, NAc-D2Nal^1 -D4ClPhe^2 -D3Pal^3 -Ser^4 -NMeTyr^5 -DLys(N-epsilon-Sar-Shikimyl)^6 -Leu^7 -Arg^8 -Pro^9 -DAla^10 NH2] (Ac-[d2Nal][dPhe(4-Cl)][d3Pal]S[NMeY][dK]([Sar-Shikimoyl])LRP[dA]-NH2), with 0.0126 nM. Turning to `CC(=O)N[C@H](Cc1ccc2ccccc2c1)C(=O)N[C@H](Cc1ccc(Cl)cc1)C(=O)N[C@H](Cc1cccnc1)C(=O)N[C@@H](CO)C(=O)N(C)[C@@H](Cc1ccc(O)cc1)C(=O)N[C@H](CCCCNC(=O)CCCNC(=O)c1cccnc1)C(=O)N[C@@H](CC(C)C)C(=O)N[C@@H](CCCCNC(C)C)C(=O)N1CCC[C@H]1C(=O)N[C@H](C)C(N)=O` [Example 4b, NAc-D2Nal^1 -D4ClPhe^2 -D3Pal^3 -Ser^4 -NMeTyr^5 -DLys[N-epsilon-(gamma-Aminobutyryl)Nicotinyl]^6 -Leu^7 -Lys(N-epsilon-Isopropyl)^8 -Pro^9 -DAla^10 NH2] (Ac-[d2Nal][dPhe(4-Cl)][d3Pal]S[NMeY][dK]([GABA-Nicotinoyl])L[Lys(iPr)]P[dA]-NH2), the Kb was 0.0234 nM.

Regarding `CC(=O)N[C@H](Cc1ccc2ccccc2c1)C(=O)N[C@H](Cc1ccc(Cl)cc1)C(=O)N[C@H](Cc1cccnc1)C(=O)N[C@@H](CO)C(=O)N(C)[C@@H](Cc1ccc(O)cc1)C(=O)N[C@H](CCCCNC(=O)[C@@H](C)NC(=O)C1=C[C@@H](O)[C@@H](O)[C@H](O)C1)C(=O)N[C@@H](CC(C)C)C(=O)N[C@@H](CCCNC(=N)N)C(=O)N1CCC[C@H]1C(=O)N[C@H](C)C(N)=O` [Example 48d, NAc-D2Nal^1 -D4ClPhe^2 -D3Pal^3 -Ser^4 -NMeTyr^5 -DLys(N-epsilon-D-Ala-Shikimyl)^6 -Leu^7 -Arg^8 -Pro^9 -DAla^10 NH2] (Ac-[d2Nal][dPhe(4-Cl)][d3Pal]S[NMeY][dK]([dA-Shikimoyl])LRP[dA]-NH2), the Kb was 0.0126 nM.
